Values after ≈ are worked out from the molar mass of the structure shown.
Test system: Staphylococcus aureus
Assay: Antibacterial activity against Staphylococcus aureus measured every 10 mins for 8 hrs by liquid culture growth inhibition assay
Type: functional

| MIC | SMILES |
| --- | --- |
| 250 µg/mL (≈ 647 µM) | CC1=CCC[C@@H](C)[C@]1(C)CC/C(C)=C/CO[C@@H]([C@H](O)[C@H](O)CO)[C@H](O)CO |
| 250 µg/mL (≈ 621 µM) | CC1=CCC[C@@H](C)[C@]1(C)CC/C(=C/CO[C@@H]([C@H](O)[C@H](O)CO)[C@H](O)CO)CO |

Source: ChEMBL document CHEMBL3758113, “Stelliosphaerols A and B, Sesquiterpene-Polyol Conjugates from an Ecuadorian Fungal Endophyte” (2015)
